Reference: patent US20260159486A1, “BENZO[H]QUINAZOLINE-4-AMINE DERIVATIVES FOR THE TREATMENT OF CANCER” (Redona Therapeutics, Inc., priority 2021, published 2026)

Legend:
recombinant human CLK3 = biological target: T1, recombinant human CLK3 (Homo sapiens, UniProt P49761); experiment: CLK3 kinase assay (LANCE Ultra); assay type: biochemical; settings: CLK3 0.5 nM, ATP 300 μM, 3 hours at 30° C.
T1 construct: purchased Thermo Fisher Scientific PV3826
How it was run: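 Recombinant human CLK3 (0.5 nM) with ULight-CREBtide (50 nM) and 300 μM ATP, 3 h at 30 °C in kinase buffer; EDTA stop, then Eu-anti-phospho-CREB antibody (2 nM, 1 h RT), TR-FRET read at 665/620 nm. Inhibition normalized to DMSO and no-ATP wells; IC50 from 4-parameter fit, ten 1:3 concentrations in duplicate.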

MDA-MB-231 cells = experiment: MDA-MB-231 proliferation assay; assay type: cell-based; settings: Homo sapiens, MDA-MB-231, 72 h, YO-PRO-1 Iodide readout
How it was run: (§1)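 Cells seeded at 750 per well, treated next day for 72 h at 37 °C with 0.5% final DMSO. Cell number read by YO-PRO-1 fluorescence after lysis, normalized to DMSO (100%) and time-zero cells (0%). GI50 from 4-parameter logistic fit, maximum constrained to 100%.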

[1] = system: phospho-SRSF6 in MDA-MB-468 cells; experiment: Inhibition of phospho-SRSF6 levels in MDA-MB-468 cells (Western blot); assay type: cell-based; settings: Homo sapiens, 2 hours, compared to DMSO control; for inhibition at 0.01 µM: 10 nM, read-out: >50% p-SRSF6 reduction at 10 nM; for inhibition at 0.1 µM: 100 nM, read-out: >50% p-SRSF6 reduction at 100 nM
Experimental: FIG. 1: FIG. 1 provides a representative Western blot showing reduction of phosphorylated-SRSF6 (P—SRSF6) in MDA-MB 468 cells by compounds of the invention. GAPDH was probed for by Western blotting to control for equal protein loading and for normalization of samples. The numbers below the blots show percent inhibition of the P—SRSF6 signal at 100 nM (A) or 10 nM (B) compared to DMSO control.
Assessment of Inhibition of Phospho-SRSF6 Levels in MDA-MB-468 Cells
MDA-MB-468 cells (ATCC, HTB-132) were cultured in DMEM (BioConcept cat. no. 1-26F03) supplemented with 10% FBS (Sigma cat. no. F9665), […] (Sigma cat. no. S8636), 1% Penicillin-Streptomycin (BioConcept cat. no. 4-01FOO-H). When cells reached a density of 70% o in 6-well plates (TPP cat. no. 92006), they were treated either with the test compound vehicle DMSO, or with experimental compounds at a final concentration of either 10 or 100 nM for 2 hours. Thereafter, the culture medium was removed and cells were collected by scraping in Lysis Buffer (20 mM Tris HCl pH7.5, 150 mM NaCl, 1 mM EGTA, 1 mM EDTA, 1% o Triton and 1% o NP-40) containing protease and phosphatase inhibitors (Halt™ Protease&Phosphatase inhibitor cocktail 100× ThermioScientific cat. no. 1861281) and 1 mM PMSF (Fluka cat. no. 93482). Cleared lysates were stored in Eppendorfftubes at −80° C. until use, and protein concentration in lysates was determined using Pierce 660 nm Protein Assay Reagent (ThermioScientific cat. no. 22660). 20 μg proteins were diluted in 4× Laemmli buffer (Biorad cat. no. 161-0747) containing 10% beta-mercaptoethanol, separated by SDS-PAGE using 10% gels, and then transferred to PVDF membranes (Trans Blot Turbo Transfer Pack BioRad cat. no. 1704156) by Trans-Blot® Turbo™ System semidry blotting methodology (BioRad). Primary antibodies were incubated in TBS-0.1% Tween-20 buffer containing 3% BSA Bovine Albumin Fr.V (Millipore cat. no. 81-053-3) overnight at 4° C. The following primary antibodies were used: Mouse anti-phosphoepitope SR proteins clone 1H4 (Millipore cat. no. MABE50) diluted 1:5000, and rabbit anti-GAPDH clone 14C10 (Cell Signaling cat. no. 2118S) to control for equal protein loading, diluted 1:2000. HRP-conjugated secondary antibodies were incubated one hour at room temperature diluted 1:5000 in TBS-0.1% Tween-20 buffer containing […] nonfat-dried bovine milk (Sigma cat. no. M7409). The following secondary antibodies were used: Goat anti-mouse-HRP (Jackson cat. no. 115-035-146) and goat anti-rabbit-HRP (Jackson cat. no. 111-035-144). Membranes were incubated with ECL Prime Western Blot Detection Reagent (Amersham cat. no. RPN2236) to detect specific signals using Fusion SOLO S device (Vilber Lourmat). Pixel intensity of the phopsho-SRSF6 (MW 55 kDa in reference to markers) and GAPDH (MW 37 kDa) signals in the Western blots were determined using Evolution-Capt image analysis software (v17.01, Vilber Lourmat). DMSO control was used to set the phospho-SRSF6 signal at baseline, phospho-SRSF6 signals for each sample were normalized by the respective GAPDH signals and percent intensity of P—SRSF6 signal at 10 and 100 nM compound compared to DMSO control was calculated (see FIG. 1).

CAL-51 cells = experiment: CAL-51 proliferation assay; assay type: cell-based; settings: Homo sapiens, CAL-51, 72 h, YO-PRO-1 Iodide readout
How it was run: as §1

T1 sequence (P49761 whole entry): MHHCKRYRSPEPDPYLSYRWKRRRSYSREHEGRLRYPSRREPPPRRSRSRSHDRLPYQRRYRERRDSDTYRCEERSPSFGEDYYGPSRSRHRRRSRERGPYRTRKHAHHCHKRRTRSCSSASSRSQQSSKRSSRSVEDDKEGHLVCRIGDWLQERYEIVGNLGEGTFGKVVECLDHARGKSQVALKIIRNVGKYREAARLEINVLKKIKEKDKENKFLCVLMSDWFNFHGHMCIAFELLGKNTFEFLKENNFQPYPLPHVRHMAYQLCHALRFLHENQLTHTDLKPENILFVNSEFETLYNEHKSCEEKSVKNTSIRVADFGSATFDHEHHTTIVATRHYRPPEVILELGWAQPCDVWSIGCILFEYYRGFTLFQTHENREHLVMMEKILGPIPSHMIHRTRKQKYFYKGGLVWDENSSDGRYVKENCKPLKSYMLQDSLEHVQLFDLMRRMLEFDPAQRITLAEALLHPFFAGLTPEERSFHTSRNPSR

Compound | IC50 (recombinant human CLK3) [nM] | GI50 (MDA-MB-231 cells) [nM] | inhibition at 0.01 µM [1] [%] | inhibition at 0.1 µM [1] [%] | GI50 (CAL-51 cells) [nM]
CN(CCO)c1c(O[C@H]2CC[C@H](N)CC2)ccc2c1CC(C)(C)c1c(N)ncnc1-2 [Example 12, 2-[[4-amino-8-(trans-4-aminocyclohexoxy)-5,5-dimethyl-6H-benzo[h]quinazolin-7-yl]-methyl-amino]ethanol] | < 30 | < 100 | < 50 | > 50 | < 100
Nc1ncnc2c1C1(CCCC1)Cc1c-2ccc(O[C@H]2CC[C@H](N)CC2)c1N [Example 37, 8-(trans-4-aminocyclohexoxy)spiro[6H-benzo[h]quinazoline-5,1′-cyclopentane]-4,7-diamine] | 30 to 100 | 100 to 2000 | > 50 | > 50 | < 100
CN(CCC#N)c1c(O[C@H]2CC[C@H](N)CC2)ccc2c1CC(C)(C)c1c(N)ncnc1-2 [Example 46, 3-[[4-amino-8-(trans-4-aminocyclohexoxy)-5,5-dimethyl-6H-benzo[h]quinazolin-7-yl]-methyl-amino]propanenitrile] | < 30 | < 100 | > 50 | > 50 | < 100
CCN(CC)c1c(O[C@H]2CC[C@H](N)CC2)ccc2c1CC(C)(C)c1c(N)ncnc1-2 [Example 7, 8-(trans-4-aminocyclohexoxy)-N7,N7-diethyl-5,5-dimethyl-6H-benzo[h]quinazoline-4,7-diamine] | < 30 | 100 to 2000 | > 50 | > 50 | 100 to 2000
CN(CC#N)c1c(O[C@H]2CC[C@@H](N)CC2)ccc2c1CC(C)(C)c1c(N)ncnc1-2 [Example 30, 2-[[4-amino-8-(cis-4-aminocyclohexoxy)-5,5-dimethyl-6H-benzo[h]quinazolin-7-yl]-methyl-amino]acetonitrile] | < 30 | < 100 | > 50 | > 50 | < 100
